We go through 27 molecules from patent US7713963B2, “Acylated indanyl amines and their use as pharmaceuticals” (sanofi-aventis Deutschland GmbH, priority 2001, dated 2010).

Series [1] concerns eNOS promoter. Nature of the series: Activation of eNOS transcription (eNOS promoter-luciferase reporter gene assay). As to conditions: 18 h incubation; for maximal fold induction / TIR (max): maximum transcription induction ratio (luciferase with compound / solvent alone); for maximal fold induction: read-out: TIR (max); for EC50: EC50 of transcription induction ratio, determined graphically, human endothelial cell line, read-out: EC-50. Type of series: cell-based, human. The procedure, abridged:
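Human endothelial cell line stably expressing firefly luciferase under a 3.5 kB eNOS promoter fragment, treated 18 h with compounds (0.5% DMSO final). Luciferase induction relative to solvent gives transcription induction ratio; EC50 read graphically from ratio versus concentration.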
(Reporter assays use an easily measured gene product as a stand-in for the process of interest.)

Where [2] appears, read: Homo sapiens, Endothelial cell, 18 h.

Read-outs that look alike come from different tables or passages of the source.

As to `O=C(NC1Cc2cccc(-c3ccc(F)cc3)c2C1)c1ccc(F)cc1` (stereo not drawn) [Compound 398B, 4-FLUORO-N-[4-(4-FLUOROPHENYL)-INDAN-2-YL]-BENZAMIDE], the melting point (usually the temperature, or range, at which the solid turns liquid) came out at 157 °C. In series [1] (Homo sapiens, 18 h), the maximal fold induction came to 3.46. In addition, in series [1] (setting [2]), the EC50 stood at 30 µM.

In turn, `COc1cc2c(cc1OC)CC(NC(=O)c1ccc(F)cc1)C2` [Compound 3, 4-FLUORO-N-(5,6-DIMETHOXY-INDAN-2-YL)-BENZAMIDE] came in with a melting point of 160 °C.

For `O=C(NC1Cc2ccccc2C1)c1ccc(OCc2ccccc2)cc1` [Compound 40, 4-BENZYLOXY-N-INDAN-2-YL-BENZAMIDE], the melting point stood at 158.5 °C.

Consider `CC(O)c1ccc2c(c1)CC(NC(=O)c1ccc(F)cc1)C2` (stereo not drawn) [Compound 402, 4-FLUORO-N-[5-(1-HYDROXY-ETHYL)-INDAN-2-YL]-BENZAMIDE], for which the melting point is 135 °C.

Turning to `CC(=O)c1ccc2c(c1)CC(NC(=O)c1ccc(F)cc1)C2` (stereo not drawn) [Compound 399, N-(5-ACETYL-INDAN-2-YL)-4-FLUORO-BENZAMIDE], the melting point came to 148 °C.

The molecule `O=C(NC1Cc2ccc(-c3ccc(F)cc3)cc2C1)c1ccc(F)cc1` (stereo not drawn) [Compound 398A, 4-FLUORO-N-[5-(4-FLUOROPHENYL)-INDAN-2-YL]-BENZAMIDE] came in with a melting point of 193 °C.

In turn, `O=C(NC1Cc2ccccc2C1)c1ccc2c(c1)OC(F)(F)O2` [Compound 66, 2,2-DIFLUORO-BENZO[1,3]DIOXOL-5-CARBOXYLIC ACID INDAN-2-YLAMIDE] displayed a melting point of 147.5 °C. Also, the maximal fold induction in series [1] (Homo sapiens, 18 h) stood at 2.7. The EC50 in series [1] (setting [2]) worked out at 0.14 µM.

`O=C(NC1Cc2ccc(O)cc2C1)c1ccc(F)cc1` (stereo not drawn) [Compound 404, 4-FLUORO-N-(5-HYDROXY-INDAN-2-YL)-BENZAMIDE] gave a melting point of 199 °C. The maximal fold induction in series [1] (Homo sapiens, 18 h) came to 3.5. In addition, the EC50 in series [1] (setting [2]) came to 12 µM.

Molecule `O=C(NC1Cc2ccc([N+](=O)[O-])cc2C1)c1ccc(F)cc1` (stereo not drawn) [Compound 389, 4-FLUORO-N-(5-NITRO-INDAN-2-YL)-BENZAMIDE] returned a melting point of 167 °C.

As for `Cc1c(C(=O)NC2Cc3ccccc3C2)cccc1C(F)(F)F` [Compound 361, N-INDAN-2-YL-2-METHYL-3-TRIFLUOROMETHYL-BENZAMIDE], the maximal fold induction in series [1] (Homo sapiens, 18 h) is 2.5. In series [1] (setting [2]), the EC50 worked out at 21 µM.

Take `CCCc1c(C(=O)NC2Cc3ccccc3C2)cnn1-c1ccc(Cl)cc1` [Compound 322, 1-(4-CHLORO-PHENYL)-5-PROPYL-1H-PYRAZOLE-4-CARBOXYLIC ACID INDAN-2-YLAMIDE]: in series [1] (Homo sapiens, 18 h), the maximal fold induction was 2.3. For the same molecule, the EC50 in series [1] (setting [2]) was 23 µM.

As to `CS(=O)(=O)Nc1cccc(C(=O)NC2Cc3ccccc3C2)c1` [Compound 388, N-INDAN-2-YL-3-METHANE SULFONYLAMINO-BENZAMIDE], in series [1], the EC50 came to 1.1 µM and the “TIR (max)” value was 2.4.

Regarding `Cc1cccc(C(=O)NC2Cc3ccccc3C2)c1F` [Compound 249, 2-FLUORO-N-INDAN-2-YL-3-METHYL-BENZAMIDE], the maximal fold induction in series [1] (Homo sapiens, 18 h) amounted to 2.5. Besides, in series [1] (setting [2]), the EC50 amounted to 15 µM.

For `O=C(NC1Cc2ccccc2C1)c1cccc2ccccc12` [Compound 294, NAPHTHALENE-1-CARBOXYLIC ACID INDAN-2-YLAMIDE], the maximal fold induction in series [1] (Homo sapiens, 18 h) was determined as 2.2. Further, the EC50 in series [1] (setting [2]) was determined as 14 µM.

For `Cc1cccc2c1CC(NC(=O)c1ccc(F)cc1)C2` (single isomer, unassigned; (+)) [Compound 1b, (+)-4-Fluoro-N-(4-methyl-indan-2-yl)-benzamide], in series [1], the EC50 turned out to be 0.2 µM and the “TIR (max)” value is 3.00.

With `O=C(NC1Cc2ccccc2C1)c1cccc(Br)c1` [Compound 382, 3-BROMO-N-INDAN-2-YL-BENZAMIDE], the maximal fold induction in series [1] (Homo sapiens, 18 h) amounted to 2.5. In series [1] (setting [2]), the EC50 was determined as 21 µM.

Consider `O=C(NC1Cc2ccccc2C1)c1ccc(Br)cc1F` [Compound 350, 4-BROMO-2-FLUORO-N-INDAN-2-YL-BENZAMIDE], for which the maximal fold induction in series [1] (Homo sapiens, 18 h) stood at 2.9. In addition, in series [1] (setting [2]), the EC50 was 0.523 µM.

Take `Cc1sccc1C(=O)NC1Cc2ccccc2C1` [Compound 365, 2-METHYL-THIOPHENE-3-CARBOXYLIC ACID INDAN-2-YLAMIDE]: the maximal fold induction in series [1] (Homo sapiens, 18 h) was found to be 3. The EC50 in series [1] (setting [2]) was found to be 0.25 µM.

As for `O=C(NC1Cc2ccccc2C1)c1ccc(Br)cc1Cl` [Compound 317, 4-BROMO-2-CHLORO-N-INDAN-2-YL-BENZAMIDE], the maximal fold induction in series [1] (Homo sapiens, 18 h) worked out at 2.9. In addition, the EC50 in series [1] (setting [2]) amounted to 0.197 µM.

Regarding `O=C(NC1Cc2ccccc2C1)c1cccc(Oc2ccccc2)c1` [Compound 286, N-INDAN-2-YL-3-PHENOXY-BENZAMIDE], in series [1] (Homo sapiens, 18 h), the maximal fold induction turned out to be 2.6. The EC50 in series [1] (setting [2]) is 26 µM.

For `CC(=O)Nc1cccc(C(=O)NC2Cc3ccccc3C2)c1Cl` [Compound 267, 3-ACETYLAMINO-2-CHLORO-N-INDAN-2-YL-BENZAMIDE], the maximal fold induction in series [1] (Homo sapiens, 18 h) was 2.5. Besides, the EC50 in series [1] (setting [2]) was 2.8 µM.

Consider `Cc1c(C(=O)NC2Cc3ccccc3C2)cnn1-c1ccc(Cl)cc1` [Compound 341, 1-(4-CHLORO-PHENYL)-5-METHYL-1H-PYRAZOLE-4-CARBOXYLIC ACID INDAN-2-YLAMIDE], for which the maximal fold induction in series [1] (Homo sapiens, 18 h) amounted to 2.5. Further, the EC50 in series [1] (setting [2]) is 22 µM.

As to `O=C(NC1Cc2ccccc2C1)c1c(F)ccc(F)c1Cl` [Compound 360, 2-CHLORO-3,6-DIFLUORO-N-INDAN-2-YL-BENZAMIDE], the maximal fold induction in series [1] (Homo sapiens, 18 h) was 2.6. In addition, the EC50 in series [1] (setting [2]) was determined as 10 µM.

Consider `O=C(NC1Cc2ccccc2C1)c1cccc(C(=O)c2ccccc2)c1` [Compound 287, 3-BENZOYL-N-INDAN-2-YL-BENZAMIDE], for which, in series [1] (Homo sapiens, 18 h), the maximal fold induction came to 2.9. For the same molecule, in series [1] (setting [2]), the EC50 is 13 µM.

Take `O=C(NC1Cc2ccccc2C1)c1cccc(Cl)c1` [Compound 283, 3-CHLORO-N-INDAN-2-YL-BENZAMIDE]: the maximal fold induction in series [1] (Homo sapiens, 18 h) came to 2.5. Also, the EC50 in series [1] (setting [2]) came out at 15 µM.

`CCCCCc1ccc(C(=O)NC2Cc3ccccc3C2)cc1` [Compound 293, N-INDAN-2-YL-4-PENTYL-BENZAMIDE]: the maximal fold induction in series [1] (Homo sapiens, 18 h) came out at 1.7. Moreover, the EC50 in series [1] (setting [2]) is 14 µM.

With `O=C(NC1Cc2cccc(I)c2C1)c1ccc(F)cc1` (stereo not drawn) [Compound 408, 4-FLUORO-N-(4-IODO-INDAN-2-YL)-BENZAMIDE], the maximal fold induction in series [1] (Homo sapiens, 18 h) was found to be 2.5. In addition, the EC50 in series [1] (setting [2]) is 11 µM.
